Assay results as given in patent US10669238B2, “Irreversible bruton's tyrosine kinase inhibitor” (HEFEI INSTITUTES OF PHYSICAL SCIENCE, CHINESE ACADEMY OF …, priority 2016, dated 2020).

Assays:
[1] = system: diffuse large B-cell lymphoma cell lines TMD8; experiment: Cell proliferation (Cell Titer-Glo), TMD8; type: cell-based; conditions: Homo sapiens, TMD8, 72 h, read-out: Effects on cell proliferation (GI50)
Text: The following cells were adopted in the example: acute myelocytic leukemia cell strains (acute myelocytic leukemia, AML) HL-60, B-lymphoma cell Ramos, colon cancer cells HCT116, leukemic cells K562, B-cell lymphoma cells U2932, diffuse large B-cell lymphoma cell line OCI-LY10, diffuse histiocytic lymphoma cells SU-DHL-2, diffuse large B-cell lymphoma cell lines TMD8, leukemia cell OCI-AML-3, acute promyelocytic leukemia cell line NB-4 (Lu+), MDS-RAEB (myelodysplastic syndrome—excessive blasts) cell lines SKM-1, human leukocyte leukemia cells HEL, acute myeloid leukemia cell lines (acute myelocytic leukemia, AML) U937, acute myeloid leukemia cell lines (acute myelocytic leukemia, AML) MOLM14, acute myeloid leukemia cell lines (acute myelocytic leukemia, AML) MOLM13, acute myeloid leukemia cell lines (acute myelocytic leukemia, AML) M-07e, acute myeloid leukemia cell lines (acute myelocytic leukemia, AML) MV4-11, acute myeloid leukemia cell lines (acute myelocytic leukemia, AML) MOLM16, diffuse large B-cell lymphoma cell lines Pfeiffer, multiple myeloma cell lines (multiple myeloma) RPM18226, bone marrow plasma cell tumor cells AMO-1, mouse pro-B cells BaF3, all purchased from ATCC.
In this example different concentrations (0.000508 μM, 0.00152 μM, 0.00457 μM, 0.0137 μM, 0.0411 μM, 0.123 μM, 0.370 μM, 1.11 μM, 3.33 μM, 10 μM) of Compound 1 and Compound 6 were respectively added into the above cells which were then cultured for 72 hours. The number of viable cells was determined via quantitative determination of ATP in living cells by using Cell Titer-Glo® (Promega, the USA) Chemical Luminescent Cell Viability Assay kit.

BTK protein kinase = BTK protein kinase (Homo sapiens, UniProt Q06187); experiment: In vitro enzymatic activity against BTK (ADP-Glo); type: biochemical; conditions: compound with BTK 4 hours at room temperature, ATP 10 μM, 37° C. 1 hour
Summary of the method: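 BTK (1.5 ng/μL enzyme solution) was preincubated with compound (final 10 μM to 0.003 μM) for 4 h at room temperature. Reaction ran 1 h at 37 °C with 10 μM ATP and 0.2 μg/μL poly(Glu,Tyr) 4:1 (final). ADP formed was measured by ADP-Glo luminescence, and IC50 was obtained by curve plotting.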

BTK WT = BTK WT (Homo sapiens, UniProt Q06187); experiment: Btk cell-free kinase assay, BTK WT protein; type: biochemical; conditions: compound 30 mins at room temperature, then 100 μM ATP 20 min at 37° C.; read-out: EC50 against BTK WT protein
Text: (§1) The BTK wild-type plasmid and the BTK mutant plasmid (C481S) were respectively transfected into SF9 cells (purchased from invitrogen), and after three generations of virus amplification, the P3-generation virus was used to transfect SF9 cells which were collected after 72-hour culture to obtain protein BTK WT and protein BTK C481S, which were then purified.

BTK C481S = target: T1, BTK C481S (Homo sapiens, UniProt Q06187, C481S); experiment: Btk cell-free kinase assay, BTK C481S mutant protein; type: biochemical; conditions: compound 30 mins at room temperature, then 100 μM ATP 20 min at 37° C.; read-out: EC50 against BTK C481S
T1 construct: made in house; host or cells: SF9 insect cells
Text: as §1

[2] = system: phosphorylation of tyrosine Y223 on Btk; experiment: Effects on BTK Y223 and downstream signaling pathway proteins in cells (anti-IgM stimulation); type: cell-based, human; conditions: Compound 1 in MEC-2, Pfeiffer, Ramos, TMD8, U2932; Compound 35 in MEC-1; 4 hours, then anti-IgM 10 mins
Text: By assaying a number of cellular biochemical and functional endpoints, the properties of the compounds were further characterized. […] In this experiment, PC132765 (purchased from Shanghai Haoyuan Chemexpress Co., Ltd.), CGI11746 (purchased from Shanghai Haoyuan Chemexpress Co., Ltd.) and Compound 6 (prepared herein) were used as control (see FIGS. 2a-2f).
Effects of the compounds on phosphorylation of BTKY223, BTKY551, PLCγ1Y783, PLCγ2Y759, PLCγ2Y1217, P—NF-κB P65, P-AKT Ser473, Erk Thr202/Tyr204 and the like were determined (FIGS. 2a-2f).

Sequence of BTK protein kinase (Q06187 whole entry): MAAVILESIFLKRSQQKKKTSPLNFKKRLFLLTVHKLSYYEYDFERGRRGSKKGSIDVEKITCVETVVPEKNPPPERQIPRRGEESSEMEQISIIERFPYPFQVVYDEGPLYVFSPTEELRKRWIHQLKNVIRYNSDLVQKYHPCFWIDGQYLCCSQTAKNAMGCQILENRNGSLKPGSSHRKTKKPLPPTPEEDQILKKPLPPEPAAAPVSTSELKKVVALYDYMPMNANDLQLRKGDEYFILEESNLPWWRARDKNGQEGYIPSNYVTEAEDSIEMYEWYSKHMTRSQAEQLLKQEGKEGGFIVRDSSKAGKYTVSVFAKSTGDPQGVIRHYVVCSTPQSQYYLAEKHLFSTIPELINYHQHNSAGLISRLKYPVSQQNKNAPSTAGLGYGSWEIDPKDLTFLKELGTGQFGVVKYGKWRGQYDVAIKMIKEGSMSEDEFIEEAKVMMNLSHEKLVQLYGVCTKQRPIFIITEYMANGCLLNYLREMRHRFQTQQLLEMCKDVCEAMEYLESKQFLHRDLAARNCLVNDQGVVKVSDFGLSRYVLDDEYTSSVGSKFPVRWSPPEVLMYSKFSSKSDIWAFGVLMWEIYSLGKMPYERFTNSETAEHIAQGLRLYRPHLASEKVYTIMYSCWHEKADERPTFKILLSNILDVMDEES
T1 sequence (Q06187 whole entry C481S): as the sequence (Q06187 whole entry) above, with C481S counted along it
Sequence of BTK WT (Q06187 whole entry): as the sequence (Q06187 whole entry) above

Compound | IC50 (BTK protein kinase; values in nM) [nM] | further results
C=CC(=O)N1CCC[C@@H](n2nc(-c3ccc(Oc4ccccc4)cc3)c3c(N)ncnc32)C1 [PCI32765, reference compound] | – | GI50 [1]: 1 nM
C=CC(=O)Nc1cc(Nc2cc(-c3cccc(NC(=O)c4ccc(N(C)C)cc4)c3C)cn(C)c2=O)ccc1C(=O)N1CCOCC1 [Compound 35, N-(3-(5-((3-acrylamide-4-(morpholin-4-carbonyl)phenyl)amino)-1-methyl-6-oxo-1,6-dihydropyridin-3-yl)-2-methylphenyl)-4-(dimethylamino)benzoylamide] | 5 | EC50 (BTK WT): 16 nM; EC50 (BTK C481S): 186 nM; phosphorylation of tyrosine Y223 on Btk [2]: selectively and significantly inhibit phosphorylation of tyrosine Y223 on Btk
Cc1c(NC(=O)c2ccc(C(C)(C)C)cc2)cccc1-c1cn(C)c(=O)c(Nc2ccc(C(=O)N3CCOCC3)cc2)n1 [CGI1746, reference compound] | – | GI50 [1]: 126 nM
C=CC(=O)Nc1cc(Nc2cc(-c3cccc(NC(=O)c4ccc(N(C)C)cc4)c3C)cn(C)c2=O)ccc1N1CCOCC1 [Compound 73] | 24.9 | –
Cc1c(NC(=O)c2ccc(N3CCOCC3)cc2)cccc1-c1cc(Nc2ccc(C(=O)N3CCOCC3)c(NC(=O)CCl)c2)c(=O)n(C)c1 [Compound 16, N-(3-(5-((3-chloroacetamide-4-(morpholin-4-carbonyl)phenyl)amino)-1-methyl-6-oxo-1,6-dihydropyridin-3-yl)-2-methylphenyl)-4-morpholinbenzoylamide] | 437 | –
Cc1ccc(C(=O)Nc2cccc(-c3cc(Nc4ccc(C(=O)N5CCOCC5)c(NC(=O)CCl)c4)c(=O)n(C)c3)c2C)cc1 [Compound 11, N-(3-(5-((3-chloroacetamide-4-(morpholin-4-carbonyl)phenyl)amino)-1-methyl-6-oxo-1,6-dihydropyridin-3-yl)-2-methylphenyl)-4-(methyl)benzoylamide] | 152 | –
C=CC(=O)Nc1cc(Nc2cc(-c3cccc(NC(=O)c4cc5ccccc5s4)c3C)cn(C)c2=O)ccc1N1CCN(CC)CC1 [Compound 91, N-(3-(5-((3-acrylamide-4-(4-ethylpiperazin-1-yl)phenyl)amino)-1-methyl-6-oxo-1,6-dihydropyridin-3-yl)-2-methylphenyl)benzo[b]thiophene-2-carboxamide] | 156 | –
C=CC(=O)Nc1cc(Nc2cc(-c3cccc(NC(=O)c4ccc(C(C)(C)C)cc4)c3C)cn(C)c2=O)ccc1C [Compound 25, N-(3-(5-((3-acrylamide-4-methylphenyl)amino)-1-methyl-6-oxo-1,6-dihydropyridin-3-yl)-2-methylphenyl)-4-(tert-butyl)benzamide] | 212 | –
C=CC(=O)Nc1cc(Nc2cc(-c3cccc(NC(=O)c4cc5c(s4)CCCC5)c3C)cn(C)c2=O)ccc1N(C)C [Compound 77, N-(3-(5-((3-acrylamide-4-(dimethylamino)phenyl)amino)-1-methyl-6-oxo-1,6-dihydropyridin-3-yl)-2-methylphenyl)-4,5,6,7-tetrahydrobenzo[b]thiophene-2-carboxamide] | 101 | –
C=CC(=O)Nc1cc(Nc2cc(-c3cccc(NC(=O)c4ccc(N(C)C)cc4)c3C)cn(C)c2=O)ccc1C(=O)N1CCCC(O)C1 (stereo not shown) [Compound 55, N-(3-(5-((3-acrylamide-4-(3-hydroxypiperdin-1-carbonyl)phenyl)amino)-1-methyl-6-oxo-1,6-dihydropyridin-3-yl)-2-methylphenyl)-4-(dimethylamino)benzoylamide] | 181 | –
C=CC(=O)Nc1cc(NC(=O)c2ccc(C(C)(C)C)cc2)c(C)c(-c2cc(Nc3ccc(C(=O)N4CCOCC4)cc3)c(=O)n(C)c2)c1 [Compound 8, 4-(tert-butyl)-N-(5-(2-acrylamide)-2-methyl-3-(1-methyl-5-((4-(morpholin-4-carbonyl)phenyl)amino)-6-oxo-1,6-dihydropyridin-3-yl)phenyl)benzoylamide] | – | IC50 (BTK protein kinase; values given in μM): 2610 nM
CCC(=O)Nc1cc(Nc2cc(-c3cccc(NC(=O)c4ccc(C(C)(C)C)cc4)c3C)cn(C)c2=O)ccc1C(=O)N1CCCC1 [Compound 33, N-(3-(5-((3-propanamide-4-(pyrrolidin-1-carbonyl)phenyl)amino)-1-methyl-6-oxo-1,6-dihydropyridin-3-yl)-2-methylphenyl)-4-(tert-butyl)benzamide] | 165 | –
C=CC(=O)Nc1cc(Nc2cc(-c3cccc(NC(=O)c4ccc(C(C)(C)C)cc4)c3C)cn(C)c2=O)ccc1C(=O)NC1CC1 [Compound 46, 2-acrylamide-4-((5-(3-(4-(tert-butyl)benzamide)-2-methylphenyl)-1-methyl-2-oxo-1,2-dihydropyridin-3-yl)amino)-N-cyclopropylbenzoylamide] | 45 | –
